Patent US20240140941A1, “DERIVATIVE OF 2,5-DIKETOPIPERAZINE COMPOUND, AND PREPARATION METHOD THEREFOR, PHARMACEUTICAL COMPOSITION THEREOF AND USE THEREOF” (DALIAN WZ PROBIOTICS AD HEALTH CO., LTD, priority 2020, published 2024)
Where a name gives a salt, the structure may show the parent alone. Read-outs that look alike come from different tables or passages of the source.

Legend:
[1] = system: NCI-H460; test: Inhibition test on cell proliferation (MTT), NCI-H460; type: cell-based, human; settings: 72 hours of drug treatment, MTT, read-out: IC50 (nM) NCI-H460
In short: (§1)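 Cells plated at 2000-6000 per well, allowed to adhere for 24 h, then exposed to serially diluted compound for 72 h at 37 °C, 5% CO2. Viability read by MTT reduction, with formazan dissolved in DMSO and absorbance taken at 490 nm. Inhibition rate calculated relative to untreated and zero-setting wells.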

[2] = Compound solubility experiment, Method 1: equilibrium solubility in pure water, LC-MS; type: physicochemical; settings: ultrapure water, 37±1° C., shaken 24 hours; for solubility at 24 h: 37 °C, thermodynamic from solid
Description: Method 1: A 1.5 mL brown EP tube was taken, about 1 mg of compound was weighed respectively, and 1 mL of ultrapure water was added thereto. The mixture was vortexed, and sonicated until the compound was no longer dissolved (the solution was turbid or had suspended particles). The mixture was put into an incubation shaker, maintained at a temperature of (37±1° C.), shaken at 100 r/min for 24 hours, so as to achieve full dissolution equilibrium. After 24 hours, the supernatant was quickly filtered through a 0.45 μm microporous membrane, and the initial filtrate was discarded. 200 μL of the renewed filtrate was taken and diluted with 200 μL of methanol. The assay was repeated at least three times. According to the chromatographic conditions, the sample was injected by LC-MS, and the peak area was measured and the equilibrium solubility of each 2,5-diketopiperazine derivative in pure water was calculated.

[3] = system: BxPC-3; test: Inhibition test on cell proliferation (MTT), BxPC-3; type: cell-based, human; settings: 72 hours of drug treatment, MTT, read-out: IC50 (nM) BxPC-3
In short: as §1

[4] = system: HT-29; test: Inhibition test on cell proliferation (MTT), HT-29; type: cell-based, human; settings: 72 hours of drug treatment
Description: (§2) Tumor cells (NCI-H460, BxPC-3, HT-29, HCC-LM3) in the logarithmic growth phase were digested, centrifuged, and the supernatants were removed. Cells were resuspended by adding fresh culture medium, and counted using a cell counting plate. 100 μL of culture medium (containing cells) was added to a 96-well plate according to the standard of 2000 to 6000 cells per well and incubated in an incubator (37° C., 5% CO2) for 24 hours. After the cells were completely adhered to the wall, the test sample and Plinabulin were diluted to different concentrations using fresh culture medium, and 4 wells were set for each concentration. After 72 hours of drug treatment, the culture medium was removed, and 20 μL of MTT at a concentration of 5 mg/mL was added to each well. After 3-4 hours in the incubator, the MTT was discarded, and 100 μL of DMSO was added to each well, and placed in a 96-well plate shaker to completely dissolve the purple formazan. Subsequently, the absorbance (OD value) was detected at a wavelength of 490 nm using a microplate reader. The experiment also required setting up zero-setting wells (blank culture medium, MTT, DMSO). Cell inhibition rate=1−(OD value of drug-dosed group−OD value of zero-setting group)/(OD value of blank group−OD value of zero-setting group)×100%.

[5] = system: HCC-LM3; test: Inhibition test on cell proliferation (MTT), HCC-LM3; type: cell-based, human; settings: 72 hours of drug treatment, MTT, read-out: IC50 (nM) HCC-LM3
Description: as §2

[6] = Compound solubility experiment, Method 2: about 2 mg salt in 0.2 mL ultrapure water, dissolution observed; type: physicochemical; settings: 37 °C, thermodynamic from solid, salts, 37±1° C., shaken 24 hours
Description: Method 2: A 0.5 mL brown EP tube was taken, about 2 mg of hydrochloride of derivatives of 2,5-diketopiperazine compounds was weighed respectively, and 0.2 mL of ultrapure water was added thereto. The mixture was vortexed, put into an incubation shaker, maintained at a temperature of (37±1° C.), shaken at 100 r/min for 24 hours, so as to achieve full dissolution equilibrium. The dissolution of the mixture was observed.

IC50 [1] [nM] | solubility at 24 h [2] [µg/mL] | IC50 [3] [nM] | IC50 [4] [nM] | IC50 [5] [nM] | IC50 ([1]; Homo sapiens, NCI-H460, 72 h) [nM] | melting point [°C] | IC50 ([3]; Homo sapiens, BXPC-3, 72 h) [nM] | IC50 ([4]; Homo sapiens, HT-29, 72 h) [nM] | IC50 ([5]; Homo sapiens, HCCLM3, 72 h) [nM] | IC50 ([1]; hydrochloride) [nM] | solubility at 24 h [6] [µg/mL] | Compound | Solubility [2] [µg/mL]
3.45 ± 0.33 | < 0.5 | 2.29 ± 0.82 | 1.03 ± 0.11 | 4.2 ± 0.12 | – | – | – | – | – | – | – | CC(C)c1c(/C=c2\[nH]c(=O)/c(=C/c3cccc(C(=O)c4ccc(F)cc4)c3)[nH]c2=O)ncn1CCCN1CCOCC1 [PLN-2-1, (3Z,6Z)-3-(3-(p-fluorobenzoyl)phenyl)methylene-6-((5-isopropyl-1-(3-morpholinyl)propylimidazol-4-yl)methylene)piperazine-2,5-dione] | –
– | < 0.5 | 4.63 ± 0.16 | 3.83 ± 0.43 | 5.58 ± 1.03 | 5.25 ± 0.49 | 194 to 195 | – | – | – | – | – | CC(C)c1c(/C=c2\[nH]c(=O)/c(=C/c3cccc(Oc4ccc(F)cc4)c3)[nH]c2=O)ncn1CCCN1CCOCC1 [PLN-2-2] | –
– | < 0.25 | – | – | – | 4.9 ± 0.61 | – | 1.43 ± 0.95 | 2.15 ± 0.33 | 6.31 ± 0.16 | – | – | O=C(c1ccc(F)cc1)c1cccc(/C=c2\[nH]c(=O)/c(=C/c3ncn(CCCN4CCOCC4)c3C3CC3)[nH]c2=O)c1 [PLN-2-3] | –
– | – | – | – | – | – | – | – | – | – | 23.8 ± 1.36 | > 10000 | O=c1[nH]/c(=C\c2ncn(CCCN3CCOCC3)c2C2CC2)c(=O)[nH]/c1=C\c1cccc(Oc2ccc(F)cc2)c1 [PLN-2-4-1, (3Z,6Z)-3-(3-(p-Fluorophenoxy)phenyl)methylene-6-((5-cyclopropyl-1-(3-morpholinyl)propylimidazol-4-yl)methylene)piperazine-2,5-dione, hydrochloride] | –
– | < 0.5 | – | – | – | 25.7 ± 2.62 | – | – | – | – | – | – | O=c1[nH]/c(=C\c2ncn(CCCN3CCOCC3)c2C2CC2)c(=O)[nH]/c1=C\c1cccc(Oc2ccc(F)cc2)c1 [PLN-2-4] | –
– | < 0.5 | – | – | – | 19.4 ± 1.63 | 199.1 to 201.1 | 12.5 ± 1.47 | 11.8 ± 1.31 | 9.78 ± 2.21 | – | – | CC(C)c1c(/C=c2\[nH]c(=O)/c(=C/c3ccccc3)[nH]c2=O)ncn1CCCN1CCOCC1 [PLN-2-5, (3Z,6Z)-3-benzylidene-6-((5-isopropyl-1-(−3-morpholinyl)propylimidazol-4-yl)methylene)piperazine-2,5-dione] | –
– | < 0.5 | – | – | – | 6.12 ± 0.43 | 211.6 to 213.6 | 4.92 ± 1.48 | 4.03 ± 0.19 | 3.3 ± 1.88 | – | – | CC(C)c1c(/C=c2\[nH]c(=O)/c(=C/c3cc(F)ccc3F)[nH]c2=O)ncn1CCCN1CCOCC1 [PLN-2-7, (3Z,6Z)-3-(2,5-difluorophenyl)methylene-6-((5-isopropyl-1-(3-morpholinyl)propylimidazol-4-yl)methylene)piperazine-2,5-dione] | –
– | < 0.5 | – | – | – | 8.51 ± 0.1 | – | 5.47 ± 0.57 | 4.37 ± 0.62 | 5.13 ± 0.12 | – | – | CC(C)c1c(/C=c2\[nH]c(=O)/c(=C/c3cccc(F)c3)[nH]c2=O)ncn1CCCN1CCOCC1 [PLN-2-9, (3Z,6Z)-3-fluorophenylmethylene-6-((5-isopropyl-1-(−3-morpholinyl)propylimidazol-4-yl)methylene)piperazine-2,5-dione] | –
– | < 0.5 | – | – | – | 17.7 ± 5.18 | – | 8.97 ± 0.74 | 10.6 ± 1.27 | 14.9 ± 0.22 | – | – | O=c1[nH]/c(=C\c2ncn(CCCN3CCOCC3)c2C2CC2)c(=O)[nH]/c1=C\c1cccc(F)c1 [PLN-2-10, (3Z,6Z)-3-m-fluorophenylmethylene-6-((5-cyclopropyl-1-(−3-morpholinyl)propylimidazol-4-yl)methylene)piperazine-2,5-dione] | –
– | – | – | – | – | 16.5 ± 3.48 | 184 to 186 | 13.9 ± 0.89 | 8.49 ± 0.54 | 7.54 ± 0.68 | – | – | COc1cccc(/C=c2\[nH]c(=O)/c(=C/c3ncn(CCCN4CCOCC4)c3C(C)C)[nH]c2=O)c1 [PLN-2-52, (3Z,6Z)-3-(3-Methoxyphenyl)methylene-6-((5-isopropyl-1-(3-morpholinyl)propylimidazol-4-yl)methylene)piperazine-2,5-dione] | –
– | – | – | – | – | 11.6 ± 1.11 | 251 to 253 | 7.17 ± 0.52 | 9.71 ± 0.74 | 6.55 ± 1.39 | – | – | CC(C)c1c(/C=c2\[nH]c(=O)/c(=C/c3cccc(OC(F)(F)F)c3)[nH]c2=O)ncn1CCCN1CCOCC1 [PLN-2-53, (3Z,6Z)-3-(3-Tifluoromethoxyphenyl)methylene-6-((5-isopropyl-1-(3-morpholinyl)propylimidazol-4-yl)methylene)piperazine-2,5-dione] | –
– | – | – | – | – | 8.28 ± 0.91 | 248 to 250 | 5.74 ± 2.19 | 6.55 ± 0.33 | 3.48 ± 2.6 | – | – | CC(C)c1c(/C=c2\[nH]c(=O)/c(=C/c3cccc4ccccc34)[nH]c2=O)ncn1CCCN1CCOCC1 [PLN-2-54, (3Z,6Z)-3-(1-Naphthalenyl)methylene-6-((5-isopropyl-1-(3-morpholinyl)propylimidazol-4-yl)methylene)piperazine-2,5-dione] | –
– | – | – | – | – | 5.59 ± 1.4 | 212 to 214 | 3.24 ± 0.73 | 2.62 ± 0.91 | 4.26 ± 0.25 | – | – | CC(C)c1c(/C=c2\[nH]c(=O)/c(=C/c3cccc(F)c3)[nH]c2=O)ncn1CCCN1CCO[C@H](C)C1 [PLN-2-56, (3Z,6Z)-3-(3-Fluorophenyl)methylene-6-(5-isopropyl-1-(3-((R)-2-methylmorpholinyl)propylimidazol-4-yl)methylene)piperazine-2,5-dione] | –
– | – | – | 5.07 ± 2.12 | – | 16.6 ± 4.94 | 211 to 213 | 8.56 ± 0.01 | – | 13.9 ± 2.5 | – | – | CC(C)c1c(/C=c2\[nH]c(=O)/c(=C/c3cccc(F)c3)[nH]c2=O)ncn1CCCN1CCO[C@@H](C)C1 [PLN-2-57, (3Z,6Z)-3-(3-Fluorophenyl)methylene-6-(5-isopropyl-1-(3-((S)-2-methylmorpholinyl)propylimidazol-4-yl)methylene)piperazine-2,5-dione] | –
– | – | – | – | – | 19.6 ± 2.15 | 182 to 184 | 8 ± 1.15 | 14.1 ± 0.22 | 31.2 ± 6.92 | – | – | C=CC(=O)N1CCN(CCCn2cnc(/C=c3\[nH]c(=O)/c(=C/c4cccc(F)c4)[nH]c3=O)c2C(C)C)CC1 [PLN-2-61, (3Z,6Z)-3-(3-Fluorophenyl)methylene-6-(5-isopropyl-1-(3-(4-(acryloyl)piperazinyl)propylimidazol-4-yl)methylene)piperazine-2,5-dione] | –
16.9 ± 1.29 | – | 9.37 ± 0.78 | 14 ± 0.58 | 16.5 ± 5.66 | – | 238.6 to 240.6 | – | – | – | – | – | C=CC(=O)N1CCN(CCCn2cnc(/C=c3\[nH]c(=O)/c(=C/c4cccc(F)c4)[nH]c3=O)c2C(C)C)CC1 [PLN-2-61-1] | –
– | < 0.5 | – | – | – | 4.17 ± 0.75 | – | 3.44 ± 0.12 | 3.49 ± 0.23 | 3.89 ± 0.16 | – | – | CC(C)c1c(/C=c2\[nH]c(=O)/c(=C/c3cc(F)cc(F)c3)[nH]c2=O)ncn1CCCN1CCOCC1 [PLN-2-62] | –
– | < 0.5 | – | – | – | 72.2 ± 4.86 | – | 55.3 ± 3.42 | – | 64.9 ± 5.12 | – | – | CC(C)c1c(/C=c2\[nH]c(=O)/c(=C/c3ccc(F)c(F)c3)[nH]c2=O)ncn1CCCN1CCOCC1 [PLN-2-63] | –
– | – | – | – | – | – | – | – | – | – | – | – | CC(C)(C)c1[nH]cnc1/C=c1\[nH]c(=O)/c(=C/c2ccccc2)[nH]c1=O [Plinabulin hydrochloride, reference compound] | 7.654
